ChEMBL document CHEMBL5223080, “Discovery of Pyrrole-imidazole Polyamides as PD-L1 Expression Inhibitors and Their Anticancer Activity via Immune and Nonimmune Pathways” (J Med Chem, 2021)
Calls of active or inactive are those of the source. No cut-off for these calls is given here.

Key:
HCC827 [1] = assay: Induction of apoptosis in human HCC827 cells assessed as inhibition of Akt phosphorylation at 10 uM by Western blot analysis; type: functional, cell-based
DNA [2] = assay: Binding affinity to wild type double stranded DNA (unknown origin) incubated for 24 hrs by Circular Dichroism assay; type: nucleic-acid assay
HCC827 [3] = assay: Induction of apoptosis in human HCC827 cells assessed as inhibition of pro-caspase 3 at 10 uM by Western blot analysis; type: functional, cell-based
MDA-MB-231 [4] = assay: Inhibition of PD-L1 mRNA expression in IFNgamma-induced human MDA-MB-231 cells measured for 36 hrs by qRT-PCR analysis; type: functional, cell-based; conditions: dose 1.25-10 µM
dsDNA [5] = assay: Binding affinity to human mutant double stranded DNA assessed as thermal stability of compound-DNA complex by measuring change in melting temperature at stoichiometry ratio 1:1 by UV melting assay; type: nucleic-acid assay
MRC5 = assay: Cytotoxicity against human MRC5 cells at 32 uM by standard CCK-8 assay; type: toxicity, cell-based; conditions: mrc5, 32 µM
MDA-MB-231 [6] = assay: Cytotoxicity against human MDA-MB-231 cells incubated for 36 hrs by standard CCK-8 assay; type: functional, cell-based; conditions: for IC50: MDA-MB-231, 36 h
[7] = Induction of T-cell mediated cytotoxicity against human HCC827 cells co-cultured with Jurkat cells assessed as apoptotic cells at 8 uM incubated for 36 hrs by standard CCK-8 assay relative to control; type: functional
dsDNA [8] = assay: Binding affinity to human wild-type double stranded DNA assessed as thermal stability of compound-DNA complex by measuring change in melting temperature at stoichiometry ratio 1:1 by UV melting assay; type: nucleic-acid assay
HCC827 [9] = assay: Cytotoxicity against human HCC827 cells incubated for 36 hrs by standard CCK-8 assay; type: functional, cell-based; conditions: for IC50: HCC827, 36 h
Jurkat = assay: Cytotoxicity against human Jurkat cells at 8 uM incubated for 36 hrs by standard CCK-8 assay; type: toxicity, cell-based
DNA [10] = assay: Binding affinity to wild-type double stranded DNA (unknown origin) by assessed as decrease in compound-DNA complex at >=8 uM by competitive electrophoretic mobility shift assay; type: nucleic-acid assay
[11] = Induction of T-cell mediated cell killing in human HCC827 cells co-cultured with PMA-activated Jurkat T cells assessed as IL-2 production at 8 uM by ELISA relative to control; type: functional
HCC827 [12] = assay: Antitumour activity against human HCC827 cells assessed as measuring interleukin-2 levels by ELISA; type: functional
[13] = Binding affinity to DNA STAT3 binding site of PD-L1 promoter region (unknown origin) assessed as disappearance of band of wild-type double stranded DNA-STAT3 protein complex at > 8 uM by competitive electrophoretic mobility shift assay
dsDNA [14] = assay: Binding affinity to human 5'-biotin-double stranded DNA assessed as dissociation rate constant by surface plasmon resonance; type: nucleic-acid assay
dsDNA [15] = assay: Binding affinity to human 5'-biotin-double stranded DNA assessed as association rate constant by surface plasmon resonance; type: nucleic-acid assay
dsDNA [16] = assay: Binding affinity to human wild-type double stranded DNA assessed as thermal stability of compound-DNA complex by measuring change in melting temperature at stoichiometry ratio 1:0.5 by UV melting assay; type: nucleic-acid assay
MDA-MB-231 [17] = assay: Induction of apoptosis in human MDA-MB-231 cells assessed as inhibition of pro-caspase 3 at 10 uM by Western blot analysis; type: functional, cell-based
dsDNA [18] = assay: Binding affinity to human mutant double stranded DNA assessed as thermal stability of compound-DNA complex by measuring melting temperature change in at stoichiometry ratio 1:0.5 by UV melting assay; type: nucleic-acid assay
dsDNA [19] = assay: Binding affinity to human wild-type double stranded DNA assessed as thermal stability of compound-DNA complex by measuring change in melting temperature at stoichiometry ratio 1:4 by UV melting assay; type: nucleic-acid assay
MDA-MB-231 [20] = assay: Antimigratory activity in human MDA-MB-231 cells assessed as inhibition rate at 0.5 to 1 uM measured after 48 hrs by Wound healing assay relative to control; type: functional; design: scale not given: the % may be the effect or the level left; conditions: dose 0.5-1 µM
MDA-MB-231 [21] = assay: Antimigratory activity in human MDA-MB-231 cells assessed as inhibition rate at 2 uM measured after 48 hrs by Wound healing assay relative to control; type: functional; design: scale not given: the % may be the effect or the level left
HCC827 [22] = assay: Inhibition of PD-L1 protein expression in IFNgamma-induced human HCC827 cells measured for 36 hrs by Western blot analysis; type: functional, cell-based; conditions: dose 1.25-10 µM
[23] = Binding affinity to human single stranded DNA (unknown origin) by electrophoretic mobility shift assay
dsDNA [24] = assay: Binding affinity to human 5'-biotin-double stranded DNA assessed as dissociation equilibrium constant by surface plasmon resonance; type: nucleic-acid assay
DNA [25] = assay: Binding affinity to wild type double stranded DNA (unknown origin) at 1:1 compound to DNA ratio incubated for 24 hrs at 340 nm by Circular Dichroism assay; type: nucleic-acid assay
HCC827 [26] = assay: Antimigratory activity in human HCC827 cells assessed as inhibition rate at 0.5 to 1 uM measured after 48 hrs by Wound healing assay relative to control; type: functional; design: scale not given: the % may be the effect or the level left; conditions: dose 0.5-1 µM
HCC827 [27] = assay: Antimigratory activity in human HCC827 cells assessed as inhibition rate at 2 uM measured after 48 hrs by Wound healing assay relative to control; type: functional; design: scale not given: the % may be the effect or the level left
Homo sapiens = organism: Homo sapiens; assay: Binding affinity to 5'-biotin-double stranded DNA (unknown origin) assessed as saturation of the compound-DNA complex at 350 to 500 nM by surface plasmon resonance; conditions: dose 350-500 nM
dsDNA [28] = assay: Binding affinity to human mutant double stranded DNA assessed as thermal stability of compound-DNA complex by measuring melting change in temperature at stoichiometry ratio 1:4 by UV melting assay; type: nucleic-acid assay
MDA-MB-231 [29] = assay: Antitumour activity against human MDA-MB-231 cells assessed as measuring interleukin-2 levels by ELISA; type: functional
MDA-MB-231 [30] = assay: Inhibition of PD-L1 protein expression in IFNgamma-induced human MDA-MB-231 cells measured for 36 hrs by Western blot analysis; type: functional, cell-based; conditions: dose 1.25-10 µM
MDA-MB-231 [31] = assay: Induction of apoptosis in human MDA-MB-231 cells assessed as inhibition of Akt phosphorylation at 10 uM by Western blot analysis; type: functional, cell-based
[32] = Induction of T-cell mediated cell killing in human MDA-MB-231 cells co-cultured with PMA-activated Jurkat T cells assessed as IL-2 production at 8 uM by ELISA relative to control; type: functional
HCC827 [33] = assay: Inhibition of PD-L1 mRNA expression in IFNgamma-induced human HCC827 cells measured for 36 hrs by qRT-PCR analysis; type: functional, cell-based; conditions: dose 1.25-10 µM
[34] = Induction of T-cell mediated cytotoxicity against human MDA-MB-231 cells co-cultured with Jurkat cells assessed as apoptotic cells at 8 uM incubated for 36 hrs by standard CCK-8 assay relative to control; type: functional
HCC827 [35] = assay: Induction of apoptosis in human HCC827 cells co-cultured with human Jurkat T cells at 8 uM relative to control; type: functional
MDA-MB-231 [36] = assay: Induction of apoptosis in human MDA-MB-231 cells co-cultured with human Jurkat T cells at 8 uM relative to control; type: functional
DNA [37] = assay: Binding affinity to wild type 28 nucleotide double stranded DNA (unknown origin) in PD-L1 gene promotor region at 1:1 compound to DNA ratio incubated for 24 hrs by Circular Dichroism assay; type: nucleic-acid assay

CC(=O)Nc1cc(C(=O)Nc2cc(C(=O)Nc3cc(C(=O)Nc4cn(C)c(C(=O)Nc5cn(C)c(C(=O)NCCC(=O)Nc6cn(C)c(C(=O)NCCCC(=O)Nc7cc(C(=O)Nc8cc(C(=O)Nc9cc(C(=O)NCCC(=O)Nc%10cc(C(=O)Nc%11cn(C)c(C(=O)Nc%12cc(C(=O)NCCC(=O)NCCCN(C)C)n(C)c%12)n%11)n(C)c%10)n(C)c9)n(C)c8)n(C)c7)n6)n5)n4)n(C)c3)n(C)c2)n(C)c1.Cl
Activity (HCC827 [1]): Active | Activity (DNA [2]): Active | inhibition (HCC827 [3]): Active | inhibition (MDA-MB-231 [4]): Dose-Dependent Effect | ΔTm (dsDNA [5]): 0.2 °C | Activity (MRC5): Non-Toxic | IC50 (MDA-MB-231 [6]): 9.05 µM | Activity (MDA-MB-231 [6]; dose 2-32 µM): Dose-Dependent Effect | Activity [7]: 70% | ΔTm (dsDNA [8]): 7 °C | IC50 (HCC827 [9]): 11.8 µM | Activity (HCC827 [9]; dose 2-32 µM): Dose-Dependent Effect | Activity (Jurkat): Non-Toxic | Activity (DNA [10]): Active | Activity [11]: 57% | Activity (HCC827 [12]): 51.17 pg/mL | Activity [13]: Active | Kd (dsDNA [14]): 32.3 10^-2/s | Ka (dsDNA [15]): 6.47 10^6/M/s | ΔTm (dsDNA [16]): 2.9 °C | inhibition (MDA-MB-231 [17]): Active | ΔTm (dsDNA [18]): 0.1 °C | ΔTm (dsDNA [19]): 7.3 °C | Activity (MDA-MB-231 [20]): 50% | Activity (MDA-MB-231 [21]): 86.33% | inhibition (HCC827 [22]): Dose-Dependent Effect | Activity [23]: inactive | Kd (dsDNA [24]): 0.0499 µM | Activity (DNA [25]): Active | Activity (HCC827 [26]): 50% | Activity (HCC827 [27]): >70% | Activity (Homo sapiens): Active | ΔTm (dsDNA [28]): 0.4 °C | Activity (MDA-MB-231 [29]): 87.89 pg/mL | inhibition (MDA-MB-231 [30]): Dose-Dependent Effect | Activity (MDA-MB-231 [31]): Active | Activity [32]: 60.35% | inhibition (HCC827 [33]): Dose-Dependent Effect | Activity [34]: 82.11% | Activity (HCC827 [35]): 269.14% | Activity (MDA-MB-231 [36]): 30.84% | Activity (DNA [37]): Active

COc1nc(OCc2cccc(-c3ccccc3)c2C)ccc1CNCCNC(C)=O
IC50 (MDA-MB-231 [6]): 7.92 µM | Activity [7]: 70.87% | IC50 (HCC827 [9]): 8.41 µM | Activity [34]: 87.58%
